Target: T1, hVN1R1 (Homo sapiens, UniProt Q9GZP7)
T1 construct: gene VN1R1
T1 sequence (Q9GZP7 1-353): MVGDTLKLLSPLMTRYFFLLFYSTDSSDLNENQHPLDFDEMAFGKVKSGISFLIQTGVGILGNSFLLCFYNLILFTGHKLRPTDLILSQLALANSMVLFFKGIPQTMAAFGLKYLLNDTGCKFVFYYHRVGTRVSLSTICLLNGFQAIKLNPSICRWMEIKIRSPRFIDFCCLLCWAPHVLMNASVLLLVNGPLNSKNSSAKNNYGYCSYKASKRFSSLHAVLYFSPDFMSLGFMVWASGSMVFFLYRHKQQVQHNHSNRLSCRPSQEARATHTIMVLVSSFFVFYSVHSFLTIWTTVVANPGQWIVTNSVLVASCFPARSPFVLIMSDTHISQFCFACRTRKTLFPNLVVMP
Experiment: label-free microscale thermophoresis (tryptophan fluorescence), purified receptor, heat-denatured control
Assay type: binding

EC50: 3.5 ± 0.7 µM
SMILES: C=C(C)C1CC=C(C)C(O)C1 (mixture of isomers) [carveol]

Reference: paper PMC3201940, “A Robust and Rapid Method of Producing Soluble, Stable, and Functional G-Protein Coupled Receptors” (PLoS ONE, 2011)
